According to US10093642B2, “Multitarget hedgehog pathway inhibitors and uses thereof” (UNIVERSITA' DEGLI STUDI DI SIENA, priority 2013, dated 2018):

Legend:
SMO receptor = target: T1, SMO receptor (UniProt P56726); assay: Displacement assay with Bodipy-cyclopamine in HEK293 cells transfected with SMO; settings: BC 5 nM, 2 h at 37° C., read-out: IC50 of blocking Bodipy-cyclopamine (BC) binding to SMO
T1 construct: fused on or other part: Possibly a C-terminal Myc3 tag, if the construct is Smo-Myc3 of Chen et al. 2002
Method: (A) HEK293 cells were transiently transfected with pcDNA-SMO vector and incubated with Bodipy-cyclopamine (BC 5 nM) alone (control) or in the presence of increasing concentrations of KAAD (Cyclopamine-KAAD, Smoothened antagonist) or increasing concentrations of Glabrescione B, as indicated. Bodipy-cyclopamine binding (BC binding) (green) is visualized using fluorescence microscopy in a representative field. (B) The concentration-response curve for Glabrescione B was obtained by quantification of the Bodipy-cyclopamine fluorescence in three photographs for each coverslip. The values are expressed as a percentage of the fluorescence detected in control HEK293 cells incubated with Bodipy-cyclopamine alone. The data shown are the means of triplicates derived from a representative experiment of three. Error bars indicate SD (standard deviation). […]
To investigate the binding properties of Glabrescione B to SMO receptor, a competition assay was carried out. In this experiment it was analyzed whether Glabrescione B could compete with Bodipy-cyclopamine (BC; 5 nM USBiological, cat. # B2527), a fluorescent derivative of cyclopamine, which is known to interact with the SMO receptor at the level of its heptahelical bundle. […] Cells were analyzed with a Carl Zeiss microscope (Axio Observer ZI). […] Bodipy-cyclopamine (green) and DAPI (blue) signals were analyzed in 3-4 representative fields for coverslips.

Jun/AP1activation = assay: Selectivity: unrelated signal transduction pathway Jun/AP1 activation; format: cell-based
GST = GST (Schistosoma japonicum, UniProt P08515); assay: NMR relaxation speed of Glabrescione B protons in presence of GST alone; format: binding; settings: 0.412 mM
Gli1 = target: T2, Gli1 (Homo sapiens, UniProt P08151); assay: Gli1-mediated transcription luciferase assay in HEK293 cells transiently expressing Gli1; format: cell-based; settings: 24 h
T2 construct: expressed in transfected cells; host or cells: HEK293
T2 sequence (P08151 1-1106): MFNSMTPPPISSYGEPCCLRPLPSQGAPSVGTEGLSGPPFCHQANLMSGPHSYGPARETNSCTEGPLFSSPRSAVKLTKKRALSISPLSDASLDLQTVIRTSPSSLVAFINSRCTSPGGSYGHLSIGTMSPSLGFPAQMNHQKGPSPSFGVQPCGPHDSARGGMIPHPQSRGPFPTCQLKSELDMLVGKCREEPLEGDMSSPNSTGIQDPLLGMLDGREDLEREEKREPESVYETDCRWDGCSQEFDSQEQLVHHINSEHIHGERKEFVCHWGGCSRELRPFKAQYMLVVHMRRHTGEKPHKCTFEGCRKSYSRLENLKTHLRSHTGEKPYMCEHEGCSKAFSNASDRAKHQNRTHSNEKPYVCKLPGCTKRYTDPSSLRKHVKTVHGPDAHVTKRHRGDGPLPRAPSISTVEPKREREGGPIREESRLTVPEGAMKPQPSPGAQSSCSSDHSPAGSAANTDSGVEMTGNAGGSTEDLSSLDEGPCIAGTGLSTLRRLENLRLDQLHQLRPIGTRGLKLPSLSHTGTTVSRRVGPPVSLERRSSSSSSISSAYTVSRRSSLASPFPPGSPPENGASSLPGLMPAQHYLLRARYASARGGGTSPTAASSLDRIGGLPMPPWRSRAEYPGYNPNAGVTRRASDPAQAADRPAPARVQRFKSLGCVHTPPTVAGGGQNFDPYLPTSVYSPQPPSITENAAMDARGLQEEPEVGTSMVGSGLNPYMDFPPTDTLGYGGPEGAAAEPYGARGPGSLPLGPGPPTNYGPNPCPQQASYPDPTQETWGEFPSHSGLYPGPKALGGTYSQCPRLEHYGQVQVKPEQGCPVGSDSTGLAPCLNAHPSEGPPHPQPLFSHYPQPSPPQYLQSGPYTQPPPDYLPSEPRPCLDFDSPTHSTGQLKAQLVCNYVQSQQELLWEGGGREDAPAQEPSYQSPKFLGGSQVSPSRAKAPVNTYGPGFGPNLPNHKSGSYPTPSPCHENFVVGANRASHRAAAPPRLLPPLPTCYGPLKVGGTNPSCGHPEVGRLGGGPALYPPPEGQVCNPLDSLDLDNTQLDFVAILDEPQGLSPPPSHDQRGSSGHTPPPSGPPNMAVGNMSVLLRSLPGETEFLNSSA
Method: FIG. 7. Inhibition of Gli1-induced transcription in transfected HEK293 cells. HEK293 cells were transfected with 12×GliBS-Luc and pRL-TK Renilla (normalization control) plus control (empty vector) or Gli1 vector and treated with Glabrescione B or GANT61 (20 μM) or vehicle only (DMSO, dimethyl sulfoxide 0.5%—Gli1 bar in the graph) for 24 h and luciferase activity tested. Shown is the mean of three independent experiments. Error bars indicate SD.
Efficacy of Glabrescione B to directly target Gli1 protein, the final effector of Hh pathway, was also tested. […] GANT61, the only small-molecule described to inhibit Gli1 function (Lauth et al., PNAS 104: 8455-8460), was included as positive control.
To investigate the ability of Glabrescione B to block downstream Hh signaling by targeting Gli1 protein functions, the inventors performed a luciferase assay in HEK293 cells transiently expressing Gli1. The cells were seeded in 24-multiwell plates and the day after transfected with Gli1 expression vector together with the reporter plasmids 12×GliBS-Luc and pRL-TK Renilla reniformis (Kogerman P et al, 1999; Everett L et al, 1999). […] After 24 h of treatment cells were lysed and analyzed by using the Dual Luciferase kit according to manufacturer's instructions (Dual-Luciferase® Reporter assay system; Promega, cat. # E1980). […]

MEF-SuFu−/− cells = assay: Gli1 mRNA (quantitative RT-PCR) in MEF-SuFu−/− cells; format: cell-based, mouse; settings: different concentrations, 48 h
Method: FIG. 9. Confluent MEF-SuFu^−/− cells were treated with DMSO (0.5%, vehicle), GANT61 (10 μM, as positive control) or different concentrations of Glabrescione B for 48 h. Gli1 mRNA levels were determined by quantitative RT-PCR, normalizing to HPRT expression. Error bars indicate SD.
To analyze the antagonist properties of Glabrescione B under more physiological conditions, the inventors used MEF-Ptch^−/− cells, embryo fibroblasts derived from Ptch^−/− mouse, in which the activation of Hh signaling is consequence of Ptch1 deletion. Since Patched acts as upstream repressor of SMO, inhibition of the Hedgehog pathway from Patched is prevented and the Hedgehog pathway is constitutively activated in this cell lines, which turned out to be a reliable cellular model for studying the effect of Hedgehog inhibitors. […]
To further elucidate the concept of downstream pathway inhibition by Glabrescione B, the inventors used MEF-SuFu^−/− cells (a kind gift by R. Toftgard, Karolinska Institutet, Sweden, Svärd, J. et al, 2006), in which the downstream Hh pathway activation is consequence of SuFu genetic ablation. Confluent cells were treated with Glabrescione B at the amount indicated in the FIG. 9 and Gli1 expression levels were determined by quantitative RT-PCR as previously described. […]

Chain of GST (P08515 whole entry): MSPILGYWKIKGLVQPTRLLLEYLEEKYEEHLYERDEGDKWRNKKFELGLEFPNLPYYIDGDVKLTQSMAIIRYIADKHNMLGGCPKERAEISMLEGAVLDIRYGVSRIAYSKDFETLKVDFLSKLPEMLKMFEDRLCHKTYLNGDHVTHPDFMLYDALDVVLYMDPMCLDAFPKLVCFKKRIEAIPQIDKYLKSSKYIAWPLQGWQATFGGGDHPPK

IC50 (SMO receptor): 1 µM | Normalized relaxation speed ΔR/Rf, GlaB:GST 1:150 (GST; proton 1): 0.024 | Normalized relaxation speed ΔR/Rf, GlaB:GST 1:150 (GST; proton 2′): 0.058 | Normalized relaxation speed ΔR/Rf, GlaB:GST 1:150 (GST; proton 3): 0.100 | Normalized relaxation speed ΔR/Rf, GlaB:GST 1:150 (GST; proton 4′): 0 | Normalized relaxation speed ΔR/Rf, GlaB:GST 1:150 (GST; proton 8): 0 | Normalized relaxation speed ΔR/Rf, GlaB:GST 1:150 (GST; proton 12): 0.034 | Normalized relaxation speed ΔR/Rf, GlaB:GST 1:150 (GST; proton 15): 0.138 | Normalized relaxation speed ΔR/Rf, GlaB:GST 1:150 (GST; proton 19): 0 | IC50 (Gli1; 12×GliBS-Luc reporter): ~15 µM
Compound: COc1cc(OC)c2c(=O)c(-c3ccc(OCC=C(C)C)c(OCC=C(C)C)c3)coc2c1 [Glabrescione B, 3-(3′,4′-bis(3-methylbut-2-enyloxy)phenyl)-5,7-dimethoxy-4H-chromen-4-one]
inhibition at 30 µM (Jun/AP1activation): 0% | Gli1-induced transcription (Gli1; GANT61 20 μM as positive control): capable of interfering with Gli1-induced transcription in a dose-dependent manner | Gli1 expression levels (quantitative RT-PCR) (MEF-SuFu−/− cells): significant reduction of the high expression levels of Gli1
